Among the data in patent publication US9115127B2 (AMGEN INC., priority 2010, dated 2015) are IC50 values, retold here.

What is called IC50 is the point on the concentration scale where inhibition reaches its midpoint. A high value points to weaker potency.

Structures can show the parent of a compound that is named as a salt.

For this experiment, the target named is T1, wild-type human ALK (cytoplasmic domain, amino acids 1058-1620, N-terminal GST fusion) (Homo sapiens, UniProt Q9UM73).
T1 construct: The cytoplasmic domain (amino acids 1058-1620) of wild-type human ALK; GST (N); made in house; host or cells: SF9 insect cells
T1 sequence (Q9UM73 1058-1620): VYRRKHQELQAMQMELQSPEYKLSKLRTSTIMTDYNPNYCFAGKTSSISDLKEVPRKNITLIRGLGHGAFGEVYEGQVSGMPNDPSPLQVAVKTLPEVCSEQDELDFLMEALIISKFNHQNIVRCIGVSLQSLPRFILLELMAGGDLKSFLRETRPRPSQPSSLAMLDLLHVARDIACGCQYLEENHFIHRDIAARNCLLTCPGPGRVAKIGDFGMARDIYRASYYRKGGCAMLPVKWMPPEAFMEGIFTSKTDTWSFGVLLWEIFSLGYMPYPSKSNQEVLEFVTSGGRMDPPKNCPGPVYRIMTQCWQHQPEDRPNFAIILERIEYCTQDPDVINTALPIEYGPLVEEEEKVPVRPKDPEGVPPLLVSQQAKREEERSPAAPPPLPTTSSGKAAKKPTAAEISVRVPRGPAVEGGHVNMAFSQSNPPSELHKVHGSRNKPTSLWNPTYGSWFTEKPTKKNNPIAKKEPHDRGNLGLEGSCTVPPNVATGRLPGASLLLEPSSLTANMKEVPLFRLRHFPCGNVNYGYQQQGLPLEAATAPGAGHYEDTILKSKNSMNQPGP
The experiment is described as follows: ALK Inhibition in Enzyme Assay (Lance TR-FRET kinase assay). Type of experiment: biochemical. The procedure:
ALK Inhibition in Enzyme Assay
Kinase activity of the purified protein was assessed using a Lance® TR-FRET assay. […] The reaction was allowed to proceed for 90 minutes at room temperature and was then terminated with 20 mM EDTA in 50 mM Tris (pH 7.5), 100 mM NaCl, 0.05% BSA, and 0.1% Tween-20. Phosphorylation of the peptide substrate was detected using the Lance® detection reagents streptavidin-allophycocyanin (SA-APC) and Eu-W1024 anti-phosphotyrosine antibody (PT66) from Perkin Elmer Life Sciences (Waltham, Mass.). The plates were read on a RUBY star plate reader (BMG LABTECH, Cary, N.C.) with an excitation wavelength of 320 nm.
As to `CC(C)NC(=O)[C@H]1CC[C@@H](n2/c(=N/C(=O)c3ccc(S(C)(=O)=O)cc3)[nH]c3cnc(OCCN4CCCCC4)cc32)CC1` [Example 120, (E)-N-(1-(cis-4-(Isopropylcarbamoyl)cyclohexyl)-6-(2-(piperidin-1-yl)ethoxy)-1H-imidazo[4,5-c]pyridin-2(3H)-ylidene)-4-(methylsulfonyl)benzamide], the IC50 fell in the range of 100 to 1000 nM.
The same measure for `CCOC(=O)[C@H]1CC[C@@H](n2/c(=N/C(=O)c3ccc(F)cc3)[nH]c3ccc(CN4CCCCC4)cc32)CC1` [Example 8, cis-Ethyl 4-((E)-2-(4-fluorobenzoylimino)-6-(piperidin-1-ylmethyl)-2,3-dihydro-1H-benzo[d]imidazol-1-yl)cyclohexanecarboxylate]: < 50 nM.
In the case of `O=C(/N=c1\[nH]c2ccc(CN3CCCCC3)cc2n1[C@H]1CC[C@@H](C(=O)NCC(F)(F)F)CC1)c1ccc(F)cc1` [Example 39, (E)-4-Fluoro-N-(6-(piperidin-1-ylmethyl)-1-(cis-4-(2,2,2-trifluoroethylcarbamoyl)cyclohexyl)-1H-benzo[d]imidazol-2(3H)-ylidene)benzamide] it was < 50 nM.
The same measure for `CC(C)(O)C1CCN(CCOc2cc3c(cn2)[nH]/c(=N\C(=O)c2cccc(F)c2)n3[C@H]2CC[C@@H](C(=O)N3C[C@@H]4C[C@H]3CN4)CC2)CC1` (relative stereo) [Example 84, (E)-N-(1-(cis-4-(cis-2,5-Diazabicyclo[2.2.1]heptane-2-carbonyl)cyclohexyl)-6-(2-(4-(2-hydroxypropan-2-yl)piperidin-1-yl)ethoxy)-1H-imidazo[4,5-c]pyridin-2(3H)-ylidene)-3-fluorobenzamide]: 100 to 1000 nM; for `CCS(=O)(=O)N1CCC(n2/c(=N/C(=O)c3ccccc3)[nH]c3cnc(OCCN4CCCCC4)cc32)CC1` [Example 66, (E)-N-(1-(1-(Ethylsulfonyl)piperidin-4-yl)-6-(2-(piperidin-1-yl)ethoxy)-1H-imidazo[4,5-c]pyridin-2(3H)-ylidene)benzamide]: 100 to 1000 nM; for `COCCOc1cc2c(cn1)[nH]/c(=N\C(=O)c1ccc(F)cc1)n2[C@H]1CC[C@@H](C(=O)NC(C)C)CC1` [Example 159, (E)-4-Fluoro-N-(1-(cis-4-(isopropylcarbamoyl)cyclohexyl)-6-(2-methoxyethoxy)-1H-imidazo[4,5-c]pyridin-2(3H)-ylidene)benzamide]: < 50 nM.
On to `CC(C)NC(=O)[C@H]1CC[C@@H](n2/c(=N/C(=O)c3ccc(F)cc3)[nH]c3cnc(OC4CCN(CC(=O)O)CC4)cc32)CC1` [Example 168, 2-(4-((E)-2-(4-Fluorobenzoylimino)-1-(cis-4-(isopropylcarbamoyl)cyclohexyl)-2,3-dihydro-1H-imidazo[4,5-c]pyridin-6-yloxy)piperidin-1-yl)acetic acid hydrochloride], for which the IC50 was < 50 nM.
The same measure for `CC(C)(O)C1CCN(CCOc2cc3c(cn2)[nH]/c(=N\C(=O)c2cccc(F)c2)n3[C@H]2CC[C@@H](C(=O)N3CC(O)C3)CC2)CC1` [Example 81, (E)-3-Fluoro-N-(1-(cis-4-(3-hydroxyazetidine-1-carbonyl)cyclohexyl)-6-(2-(4-(2-hydroxypropan-2-yl)piperidin-1-yl)ethoxy)-1H-imidazo[4,5-c]pyridin-2(3H)-ylidene)benzamide]: 100 to 1000 nM.
In the case of `O=C(/N=c1\[nH]c2ccc(CN3CCOCC3)cc2n1[C@H]1CC[C@@H](C(=O)O)CC1)c1ccc(F)cc1` [Example 42, cis-4-((E)-2-(4-Fluorobenzoylimino)-6-(morpholinomethyl)-2,3-dihydro-1H-benzo[d]imidazol-1-yl)cyclohexanecarboxylic acid] it was 1000 to 5000 nM; in that of `O=C(/N=c1\[nH]c2ccc(CN3CCCCC3)cc2n1[C@H]1CC[C@@H](C(=O)N2CCNCC2)CC1)c1ccc(F)cc1` [Example 47, (E)-4-Fluoro-N-(1-(cis-4-(piperazine-1-carbonyl)cyclohexyl)-6-(piperidin-1-ylmethyl)-1H-benzo[d]imidazol-2(3H)-ylidene)benzamide], < 50 nM; in that of `COc1ccc(C(=O)/N=c2\[nH]c3cnc(OCCN4CCCCC4)cc3n2[C@H]2CC[C@@H](C(=O)NC(C)C)CC2)cc1` [Example 100, (E)-N-(1-(cis-4-(Isopropylcarbamoyl)cyclohexyl)-6-(2-(piperidin-1-yl)ethoxy)-1H-imidazo[4,5-c]pyridin-2(3H)-ylidene)-4-methoxybenzamide], 50 to 100 nM.
In the case of `COC(=O)[C@H]1CC[C@@H](n2/c(=N/C(=O)c3ccccc3)[nH]c3cnc(OCCN4CCCCC4)cc32)CC1` [Example 20, cis-Methyl 4-((E)-2-(benzoylimino)-6-(2-(piperidin-1-yl)ethoxy)-2,3-dihydro-1H-imidazo[4,5-c]pyridin-1-yl)cyclohexanecarboxylate] it was < 50 nM; in that of `CC(C)NC(=O)[C@H]1CC[C@@H](n2/c(=N/C(=O)c3ccc(C(F)(F)F)cc3)[nH]c3cnc(OCCN4CCCCC4)cc32)CC1` [Example 102, (E)-N-(1-(cis-4-(Isopropylcarbamoyl)cyclohexyl)-6-(2-(piperidin-1-yl)ethoxy)-1H-imidazo[4,5-c]pyridin-2(3H)-ylidene)-4-(trifluoromethyl)benzamide], 100 to 1000 nM.
As to `COc1cccc(C(=O)/N=c2\[nH]c3cnc(OCCN4CCCCC4)cc3n2[C@H]2CC[C@@H](C(=O)NC(C)C)CC2)c1` [Example 116, (E)-N-(1-(cis-4-(Isopropylcarbamoyl)cyclohexyl)-6-(2-(piperidin-1-yl)ethoxy)-1H-imidazo[4,5-c]pyridin-2(3H)-ylidene)-3-methoxybenzamide], the IC50 was 50 to 100 nM.
The same measure for `CC(C)NC(=O)[C@H]1CC[C@@H](n2/c(=N/C(=O)c3ccc(C#N)c(F)c3)[nH]c3cnc(OCCN4CCCCC4)cc32)CC1` [Example 103, (E)-4-Cyano-3-fluoro-N-(1-(cis-4-(isopropylcarbamoyl)cyclohexyl)-6-(2-(piperidin-1-yl)ethoxy)-1H-imidazo[4,5-c]pyridin-2(3H)-ylidene)benzamide]: < 50 nM; for `CC(C)NC(=O)[C@H]1CC[C@@H](n2/c(=N/C(=O)c3ccc(F)c(C(F)(F)F)c3)[nH]c3ccc(CN4CCC(C(C)(C)O)CC4)cc32)CC1` [Example 148, (E)-4-Fluoro-N-(6-((4-(2-hydroxypropan-2-yl)piperidin-1-yl)methyl)-1-(cis-4-(isopropylcarbamoyl)cyclohexyl)-1H-benzo[d]imidazol-2(3H)-ylidene)-3-(trifluoromethyl)benzamide]: < 50 nM.
In the case of `CC(C)(O)C1CCN(Cc2ccc3[nH]/c(=N\C(=O)c4cccc(F)c4)n([C@H]4CC[C@@H](C(N)=O)CC4)c3c2)CC1` [Example 231] it was < 50 nM.
In the case of `O=C(Nc1nc2ccc(CO)cc2n1C12CC3CC(CC(C3)C1)C2)c1ccccc1` [Example 13, N-(1-adamantyl-6-(hydroxymethyl)-1H-benzo[d]imidazol-2-yl)benzamide] it was 100 to 1000 nM; in that of `CC(C)NC(=O)[C@H]1CC[C@@H](n2/c(=N/C(=O)c3ccc(F)cc3)[nH]c3ccc(CN4CCC[C@H]4C(=O)O)cc32)CC1` [Example 54, (S)-1-(((E)-2-(4-Fluorobenzoylimino)-3-(cis-4-(isopropylcarbamoyl)cyclohexyl)-2,3-dihydro-1H-benzo[d]imidazol-5-yl)methyl)pyrrolidine-2-carboxylic acid hydrochloride], < 50 nM.
For `CNC(=O)[C@H]1CC[C@@H](n2/c(=N/C(=O)c3ccc(F)cc3)[nH]c3ccc(CN4CCCCC4)cc32)CC1` [Example 15, (E)-N-(1-(cis-4-(Methylcarbamoyl)cyclohexyl)-6-(piperidin-1-ylmethyl)-1H-benzo[d]imidazol-2(3H)-ylidene)-4-fluorobenzamide], the IC50 is < 50 nM.
In the case of `COC(=O)[C@H]1CC[C@@H](n2c(NC(=O)c3cccc(C(F)(F)F)c3)nc3ccc(CN4CCCCC4)cc32)CC1` [Example 14, cis-Methyl 4-(6-(piperidin-1-ylmethyl)-2-(3-(trifluoromethyl)benzamido)-1H-benzo[d]imidazol-1-yl)cyclohexanecarboxylate] it was < 50 nM; in that of `C[C@H](CO)NC(=O)[C@H]1CC[C@@H](n2/c(=N/C(=O)c3ccc(F)cc3)[nH]c3ccc(CN4CCOCC4)cc32)CC1` [Example 200, (E)-4-Fluoro-N-(1-(cis-4-((R)-1-hydroxypropan-2-ylcarbamoyl)cyclohexyl)-6-(morpholinomethyl)-1H-benzo[d]imidazol-2(3H)-ylidene)benzamide], < 50 nM.
The same measure for `CC(C)NC(=O)[C@H]1CC[C@@H](n2/c(=N/C(=O)c3ccc(F)cc3)[nH]c3ccc(CN4CCC(C(O)C(F)(F)F)CC4)cc32)CC1` (stereo partly drawn) [Example 186, (E)-4-Fluoro-N-(1-(cis-4-(isopropylcarbamoyl)-cyclohexyl)-6-((4-(2,2,2-trifluoro-1-hydroxyethyl)piperidin-1-yl)methyl)-1H-benzo[d]imidazol-2(3H)-ylidene)benzamide]: < 50 nM.
In the case of `CC(C)NC(=O)[C@H]1CC[C@@H](n2/c(=N/C(=O)c3ccc(F)cc3)[nH]c3ccc(O)cc32)CC1` [Example 154, 4-Fluoro-N-(6-hydroxy-1-(cis-4-(isopropylcarbamoyl)cyclohexyl)-1H-benzo[d]imidazol-2-yl)benzamide] it was < 50 nM.
Regarding `CC(C)NC(=O)[C@H]1CC[C@@H](n2/c(=N/C(=O)c3ccc(F)cc3)[nH]c3cnc(OCCN4CCOCC4)cc32)CC1` [Example 51, (E)-4-Fluoro-N-(1-(cis-4-(isopropylcarbamoyl)cyclohexyl)-6-(2-morpholinoethoxy)-1H-imidazo[4,5-c]pyridin-2(3H)-ylidene)benzamide], the IC50 is < 50 nM.
